Measured values from patent US9732032B2, “3-aminocyclopentane carboxamide derivatives” (Merck Patent GmbH, priority 2012, dated 2017).
pIC50: −log10 of the molar value.

Each compound was assayed against T1, human recombinant full-length fatty acid synthase (FASN) (Homo sapiens, UniProt P49327) (assay: Biochemical activity testing of human fatty acid synthase FASN (NADPH fluorescence intensity assay)). Conditions: NADPH fluorescence decrease (ex 340 nm / em 460 nm), 30 minutes at room temperature, read-out: IC50 FASN (enzyme assay).
T1 construct: human recombinant full-length fatty acid synthase; made in house; host or cells: SF9 cells
T1 sequence (P49327 whole entry): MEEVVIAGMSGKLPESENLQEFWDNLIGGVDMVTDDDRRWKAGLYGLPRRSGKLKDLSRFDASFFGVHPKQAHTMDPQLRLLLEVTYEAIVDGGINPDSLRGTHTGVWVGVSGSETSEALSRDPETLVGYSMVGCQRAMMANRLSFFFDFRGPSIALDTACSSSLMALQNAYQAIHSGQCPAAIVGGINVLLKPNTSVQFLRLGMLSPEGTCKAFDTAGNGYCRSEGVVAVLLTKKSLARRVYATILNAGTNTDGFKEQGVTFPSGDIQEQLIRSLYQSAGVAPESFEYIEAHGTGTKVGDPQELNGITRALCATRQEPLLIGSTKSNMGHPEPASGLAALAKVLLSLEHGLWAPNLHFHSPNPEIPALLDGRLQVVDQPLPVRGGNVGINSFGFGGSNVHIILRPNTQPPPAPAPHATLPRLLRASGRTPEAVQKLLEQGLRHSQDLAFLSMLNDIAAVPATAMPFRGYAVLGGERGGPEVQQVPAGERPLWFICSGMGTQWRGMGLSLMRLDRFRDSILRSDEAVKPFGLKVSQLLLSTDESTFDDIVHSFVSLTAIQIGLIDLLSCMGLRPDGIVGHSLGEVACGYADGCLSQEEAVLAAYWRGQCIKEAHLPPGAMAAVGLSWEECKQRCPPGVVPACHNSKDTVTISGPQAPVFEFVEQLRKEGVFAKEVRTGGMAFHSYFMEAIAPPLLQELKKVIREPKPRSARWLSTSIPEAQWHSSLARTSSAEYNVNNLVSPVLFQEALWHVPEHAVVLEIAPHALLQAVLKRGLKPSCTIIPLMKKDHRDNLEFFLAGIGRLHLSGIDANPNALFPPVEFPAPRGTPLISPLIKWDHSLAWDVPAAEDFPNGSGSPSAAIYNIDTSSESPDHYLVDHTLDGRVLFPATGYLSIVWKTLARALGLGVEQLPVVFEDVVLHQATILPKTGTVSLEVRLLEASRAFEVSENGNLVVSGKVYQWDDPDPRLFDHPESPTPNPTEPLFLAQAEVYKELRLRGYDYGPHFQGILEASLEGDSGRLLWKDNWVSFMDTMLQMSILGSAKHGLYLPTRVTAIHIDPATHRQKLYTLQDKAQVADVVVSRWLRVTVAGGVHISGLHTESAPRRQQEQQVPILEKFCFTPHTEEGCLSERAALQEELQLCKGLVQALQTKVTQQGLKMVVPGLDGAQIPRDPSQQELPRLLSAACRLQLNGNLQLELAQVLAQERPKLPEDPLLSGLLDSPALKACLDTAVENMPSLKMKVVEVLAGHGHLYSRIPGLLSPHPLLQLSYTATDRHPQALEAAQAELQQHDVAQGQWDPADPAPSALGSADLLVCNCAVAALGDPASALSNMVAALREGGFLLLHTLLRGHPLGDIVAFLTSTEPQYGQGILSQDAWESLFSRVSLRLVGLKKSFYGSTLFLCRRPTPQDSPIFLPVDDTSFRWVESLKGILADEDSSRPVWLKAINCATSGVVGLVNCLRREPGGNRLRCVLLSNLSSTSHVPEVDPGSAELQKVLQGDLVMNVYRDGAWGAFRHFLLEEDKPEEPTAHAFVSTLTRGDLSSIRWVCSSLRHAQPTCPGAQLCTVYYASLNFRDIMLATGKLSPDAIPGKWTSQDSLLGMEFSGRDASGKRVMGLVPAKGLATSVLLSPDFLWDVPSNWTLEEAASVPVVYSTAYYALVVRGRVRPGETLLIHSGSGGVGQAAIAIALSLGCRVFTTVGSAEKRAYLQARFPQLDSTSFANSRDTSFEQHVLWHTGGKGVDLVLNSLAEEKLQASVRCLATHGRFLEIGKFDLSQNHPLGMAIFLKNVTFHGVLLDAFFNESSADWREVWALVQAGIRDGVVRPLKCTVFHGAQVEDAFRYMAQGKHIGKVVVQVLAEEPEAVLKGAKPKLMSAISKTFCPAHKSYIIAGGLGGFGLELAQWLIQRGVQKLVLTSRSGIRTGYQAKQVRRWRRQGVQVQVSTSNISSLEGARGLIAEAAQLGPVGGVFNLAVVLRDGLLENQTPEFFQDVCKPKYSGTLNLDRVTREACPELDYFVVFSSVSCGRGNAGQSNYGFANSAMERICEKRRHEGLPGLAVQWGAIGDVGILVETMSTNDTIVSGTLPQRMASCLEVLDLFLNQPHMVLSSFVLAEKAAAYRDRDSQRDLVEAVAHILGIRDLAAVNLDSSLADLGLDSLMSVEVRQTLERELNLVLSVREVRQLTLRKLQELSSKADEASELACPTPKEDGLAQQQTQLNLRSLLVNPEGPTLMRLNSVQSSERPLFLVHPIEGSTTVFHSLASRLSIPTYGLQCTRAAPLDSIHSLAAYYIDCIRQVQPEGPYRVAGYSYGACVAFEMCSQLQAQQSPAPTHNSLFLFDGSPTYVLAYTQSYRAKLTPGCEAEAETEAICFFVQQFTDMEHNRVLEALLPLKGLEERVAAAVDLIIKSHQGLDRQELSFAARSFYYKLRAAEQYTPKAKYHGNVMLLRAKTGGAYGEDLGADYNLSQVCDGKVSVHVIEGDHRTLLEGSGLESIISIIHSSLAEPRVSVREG
Source text: aq (aqueous), h (hour), g (gram), L (liter), mg (milligram), MHz (Megahertz), (melting point), eq (equivalent), mL (milliliter), L (microliter), ACN (acetonitrile), AcOH (acetic acid), CDCl3 (deuterated chloroform), CD3OD (deuterated methanol), CH3CN (acetonitrile), c-hex (cyclohexane), DCC (dicyclohexyl carbodiimide), DCM (dichloromethane), DIC (diisopropyl carbodiimide), DIEA (diisopropylethyl-amine), DMF (dimethylformamide), DMSO (dimethylsulfoxide), DMSO-d6 (deuterated dimethylsulfoxide), EDC (1-(3-dimethyl-amino-propyl)-3-ethylcarbodiimide), ESI (Electro-spray ionization), EtOAc (ethyl acetate), Et2O (diethyl ether), EtOH (ethanol), HATU (dimethylamino-([1,2,3]triazolo[4,5-b]pyridin-3-yloxy)-methylene]-dimethylammonium hexafluorophosphate), HPLC (High Performance Liquid Chromatography), i-PrOH (2-propanol), K2CO3 (potassium carbonate), LC (Liquid Chromatography), MeOH (methanol), MgSO4 (magnesium sulfate), MS (mass spectrometry), MTBE (Methyl tert-butyl ether), NaHCO3 (sodium bicarbonate), NaBH4 (sodium borohydride), NMM (N-methyl morpholine), NMR (Nuclear Magnetic Resonance), PyBOP (benzotriazole-1-yl-oxy-trispyrrolidino-phosphonium hexafluorophosphate), RT (room temperature), Rt (retention time), SPE (solid phase extraction), TBTU (2-(1-H-benzotriazole-1-yl)-1,1,3,3-tetramethyluromium tetrafluoro borate), TEA (triethylamine), TFA (trifluoroacetic acid), THF (tetrahydrofuran), TLC (Thin Layer Chromatography), UV (Ultraviolet). Description of the In Vitro Assays Abbreviations: GST=Glutathione-S-transferase FRET=Fluorescence resonance energy transfer HTRF®=(homogenous time resolved fluorescence) HEPES=4-(2-hydroxyethyl)-1-piperazine ethanesulfonic acid buffer DTT=Dithiothreitol BSA=bovine serum albumin CHAPS=detergent; CHAPS=3[(3-cholamidopropyl)dimethylammonio]-1-propanesulfonate Biochemical Activity Testing of Human Fatty Acid Synthase FASN
Fatty acid synthase FASN is a multifunctional enzyme with seven catalytic activities thereby synthesising long chain fatty acids especially palmitoyl-CoA in the presence of co-factor NADPH starting from the substrates acetyl-CoA and malonyl-CoA. The reductive synthesis is realized by the oxidation of NADPH to NADP. Since NADPH has a high fluorescence intensity quantum yield compared to NADP with excitation at 340 nm and emission at 460 nm, the reaction can be monitored via the decrease in fluorescence intensity. The biochemical FASN activity testing was performed as 384 well two-time-point kinetic fluorescence intensity assay format in Greiner low volume medium binding 384-well black microtiter plates in a total assay volume of 8 μl and was used for high throughput screen. In each well 3 μl 40 nM human recombinant full-length fatty acid synthase (produced in-house in SF9 cells) were dispensed in the following assay buffer: 50 mM potassium phosphate buffer pH 7.0, 0.005% (w/v) BSA, 2 mM Glutathione, 0.02% Tween-20. Then 2 μl of 200 μM NADPH in assay buffer were added, followed by the addition of the test compounds in 10 dilution concentrations starting with 30 μM (final concentration) to get a final DMSO content of 1% (v/v). The mixture was incubated for at least 15 min at room temperature. After the pre-incubation the enzymatic reaction was started by the addition of 2 μl substrate solution (80 μM acetyl-CoA, 240 μM malonyl-CoA). A first fluorescence intensity measurement (time point one) was performed with an Envision multimode reader (Perkin Elmer LAS Germany GmbH) at excitation wavelength 340 nm (lamp mode) and emission wavelength 460 nm. The reaction was incubated for 30 minutes at room temperature. After this the fluorescence intensity was measured again in the Envision using the same parameters as described above (second time point measurement). The data were analysed by subtracting the first time point measurement value from the second time point measurement value (after the enzymatic reaction). The differences of the emission signals were determined. […]

Structure (SMILES) | pIC50
CCNC(=O)[C@H]1CC[C@@H](N(C)C(=O)c2ccc(-c3nc4cc(S(N)(=O)=O)ccc4o3)cc2)C1 [Compound A93, N-((1R,3S)-3-ethylcarbamoyl-cyclopentyl)-N-methyl-4-(5-sulfamoyl-benzooxazol-2-yl)-benzamide] | 4.30 to 5.52
COc1cc(-c2nc3ccccc3o2)ccc1C(=O)N(C)[C@@H]1CC[C@H](C(=O)NC2(C)CC2)C1 [Compound A79, 4-(1,3-benzoxazol-2-yl)-2-methoxy-N-methyl-N-[(1R,3S)-3-[(1-methylcyclopropyl)carbamoyl]cyclopentyl]benzamide] | 5.52 to 6.52
CN(C(=O)c1ccc(-c2nc3ccccc3o2)cc1)[C@@H]1CC[C@H](C(=O)NC2(C)CCC2)C1 [Compound A84, 4-benzoxazol-2-yl-N-methyl-N-[(1R,3S)-3-(1-methyl-cyclobutylcarbamoyl)-cyclopentyl]-benzamide] | > 6.52
CN(C)C(=O)[C@H]1CC[C@@H](N(C)C(=O)c2ccc(-c3nc4ccccc4o3)cc2)C1 [Compound A82, 4-benzoxazol-2-yl-N-((1R,3S)-3-dimethylcarbamoyl-cyclopentyl)-N-methyl-benzamide] | 5.52 to 6.52
CCNC(=O)[C@H]1CC[C@@H](N(C)C(=O)c2ccc(-c3nc4cc(F)cc(F)c4o3)cc2)C1 [Compound A96, 4-(5,7-difluoro-benzoxazol-2-yl)-N-((1R,3S)-3-ethylcarbamoyl-cyclopentyl)-N-methyl-benzamide] | > 6.52
CC(C)NC(=O)[C@H]1CC[C@@H](N(C)C(=O)c2ccc(-c3nc4ccccc4o3)cc2)C1 [Compound A5, 4-benzoxazol-2-yl-N-((1R,3S)-3-isopropylcarbamoyl-cyclopentyl)-N-methyl-benzamide] | > 6.52
CN(C(=O)c1ccc(-c2nc3ccccc3o2)cc1)[C@@H]1CC[C@H](C(=O)NC2CCC2)C1 [Compound A76, 4-(1,3-benzoxazol-2-yl)-N-[(1R,3S)-3-(cyclobutylcarbamoyl)cyclopentyl]-N-methyl-benzamide] | > 6.52
CCNC(=O)[C@H]1CC[C@@H](N(C)C(=O)c2ccc(-c3nc4ccccc4o3)c(OC)c2)C1 [Compound A45, 4-benzoxazol-2-yl-N-((1R,3S)-3-ethylcarbamoyl-cyclopentyl)-3-methoxy-N-methyl-benzamide] | > 6.52
CCNC(=O)[C@H]1CC[C@@H](N(C)C(=O)c2ccc(-c3cn4ccc(C#N)cc4n3)cc2)C1 [Compound A87, 4-(7-cyano-imidazo[1,2-a]pyridin-2-yl)-N-((1R,3S)-3-ethylcarbamoyl-cyclopentyl)-N-methyl-benzamide] | 5.52 to 6.52
CN(C(=O)c1ccc(-c2ccncc2)cc1)[C@@H]1CC[C@H](C(=O)NC2(C)CC2)C1 [Compound A80, N-methyl-N-[(1R,3S)-3-[(1-methylcyclopropyl)carbamoyl]cyclopentyl]-4-(4-pyridyl)benzamide] | > 6.52
CCNC(=O)[C@H]1CC[C@@H](N(C)C(=O)c2ccc(-c3ccc(F)cc3)cc2)C1 [Compound A104, 4′-fluoro-biphenyl-4-carboxylic acid ((1R,3S)-3-ethylcarbamoyl-cyclopentyl)-methyl-amide] | > 6.52
CN(C(=O)c1ccc(-c2nc3ccccc3o2)cc1)[C@@H]1CC[C@H](C(=O)NC2(CO)CC2)C1 [Compound A108, 4-benzoxazol-2-yl-N-[(1R,3S)-3-(1-hydroxymethyl-cyclopropylcarbamoyl)-cyclopentyl]-N-methyl-benzamide] | 5.52 to 6.52
CC[C@@H](C)NC(=O)[C@H]1CC[C@@H](N(C)C(=O)c2ccc(-c3nc4ccccc4o3)cc2)C1 [Compound A75, 4-(1,3-benzoxazol-2-yl)-N-methyl-N-[(1R,3S)-3-[[(1R)-1-methylpropyl]-carbamoyl]cyclopentyl]benzamide] | > 6.52
CN(C(=O)c1ccc(-c2nc3ccccc3o2)cc1)[C@@H]1CC[C@H](C(=O)N[C@H]2C[C@@H](O)C2)C1 [Compound A78, 4-(1,3-benzoxazol-2-yl)-N-[(1R,3S)-3-[(cis-3-hydroxycyclobutyl)-carbamoyl]cyclopentyl]-N-methyl-benzamide] | > 6.52
